Results on twelve compounds are retold here after ChEMBL document CHEMBL1201862, “PubChem BioAssay data set” (2004).

Some test systems named below: RPMI-8226; A549; SR; OVCAR-5; SK-OV-3; UACC-257; OVCAR-3; SK-MEL-28; SW-620; NCI-H226; CAKI-1; SNB-75; SF-539; U-251; UACC-62; HL-60; Malme-3M; PC-3; MDA-MB-435.
Holding throughout (experiment): NCI tumour cell line growth inhibition, 48 h

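1) Cells in 96-well plates. 2) Compound, 48 h, 5 concentrations. 3) Linear interpolation between surrounding doses. 4) Unreached endpoint = highest concentration. At the GI50, growth is halved.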 Active and inactive are the calls of the source. Rule as the data show it: active = GI50 up to about 1.1 µM and inactive = higher.

Consider `COC(=O)/C(=N\NC(N)=O)C(C(=O)C(=O)Nc1ccccc1C(=O)OC)c1nc2ccc(C(=O)c3ccccc3)cc2nc1O` (stereo not drawn), for which the GI50 in the assay with RPMI-8226, in the assay with A549, in the assay with SR, in the assay on OVCAR-5, with SK-OV-3 and in the assay on UACC-257 was > 100 µM (inactive) in each case. The GI50 with OVCAR-3, in the assay with SK-MEL-28, with SW-620, in the assay with NCI-H226, in the assay with CAKI-1 and in the assay on SNB-75 was > 100 µM (inactive) each time. The GI50 in the assay with SF-539, in the assay with U-251, in the assay on UACC-62, with HL-60 and in the assay on Malme-3M was > 100 µM (inactive) in each case.

For the compound `O=C1C2C3CC4C5C3C1C5C1(SCCS1)C42` (stereo not drawn), the GI50 with RPMI-8226, with A549, in the assay with SR, in the assay with SK-OV-3, in the assay on UACC-257 and in the assay with SK-MEL-28 was > 100 µM (inactive) throughout. For the same compound, the GI50 with SW-620, in the assay on NCI-H226, in the assay on CAKI-1, with SNB-75, with SF-539 and in the assay on U-251 was > 100 µM (inactive) in each case. Besides, the GI50 with UACC-62, in the assay on HL-60 and with Malme-3M was > 100 µM (inactive) in each case.

For the compound `Cn1c(C(C)(C)OC(=O)Oc2ccccc2)cnc1[N+](=O)[O-]`, the GI50 was 21 µM (inactive) with RPMI-8226; > 100 µM (inactive) in the assay on PC-3; > 100 µM (inactive) with A549; 16.8 µM (inactive) in the assay with SR; > 100 µM (inactive) in the assay with OVCAR-5; > 100 µM (inactive) with SK-OV-3. For the same compound, the GI50 is 36 µM (inactive) in the assay with UACC-257; 93.5 µM (inactive) in the assay with OVCAR-3; > 100 µM (inactive) with SK-MEL-28; 72.8 µM (inactive) in the assay on SW-620; 36.6 µM (inactive) in the assay on NCI-H226; > 100 µM (inactive) in the assay with CAKI-1. Further, the GI50 in the assay on SNB-75 is > 100 µM (inactive); in the assay with SF-539, > 100 µM (inactive); in the assay on U-251 it was > 100 µM (inactive); with UACC-62, 55.6 µM (inactive); with HL-60, 36.5 µM (inactive); in the assay with Malme-3M, 32.3 µM (inactive). Moreover, in the assay with MDA-MB-435, the GI50 was > 100 µM (inactive).

`N#CCCN(c1ccc(C=O)cc1)S(=O)(=O)c1ccccc1`: the GI50 with RPMI-8226, in the assay on A549, with SR, with OVCAR-5, in the assay with SK-OV-3 and with UACC-257 was > 100 µM (inactive) throughout. In addition, the GI50 was > 100 µM (inactive) with OVCAR-3; > 100 µM (inactive) in the assay with SK-MEL-28; > 100 µM (inactive) in the assay on SW-620; > 100 µM (inactive) in the assay on NCI-H226; > 100 µM (inactive) in the assay with CAKI-1; 61.9 µM (inactive) in the assay on SNB-75. The GI50 in the assay with SF-539, in the assay on U-251, in the assay on UACC-62, with HL-60 and in the assay with Malme-3M was > 100 µM (inactive) each time.

As to `CCN(CC)CCn1c2c3ccccc3ccc2c2oc(=O)c3ccccc3c21`, the GI50 with RPMI-8226 is > 100 µM (inactive); in the assay on A549 it was > 100 µM (inactive); in the assay with SR, 34.7 µM (inactive); in the assay on OVCAR-5 it was > 100 µM (inactive); in the assay with SK-OV-3 it was > 100 µM (inactive); in the assay with UACC-257, > 100 µM (inactive). The GI50 with OVCAR-3 is > 100 µM (inactive); in the assay on SK-MEL-28, > 100 µM (inactive); in the assay on SW-620, > 100 µM (inactive); in the assay with CAKI-1 it was > 100 µM (inactive); in the assay with SNB-75, 15.9 µM (inactive); in the assay with SF-539, 22.6 µM (inactive). The GI50 in the assay with U-251 is 57 µM (inactive); in the assay on UACC-62, > 100 µM (inactive); with HL-60 it was > 100 µM (inactive); in the assay with Malme-3M, > 100 µM (inactive).

Regarding `CN(/N=C\c1ccc2ccccc2c1)C1=NCCCN1`, the GI50 in the assay with RPMI-8226 is 14.9 µM (inactive); with A549, 8.18 µM (inactive); with SR it was 13.1 µM (inactive); in the assay on OVCAR-5 it was 28.1 µM (inactive); in the assay with SK-OV-3 it was 19.1 µM (inactive); with UACC-257, 10.4 µM (inactive). The GI50 in the assay on OVCAR-3 is 18.9 µM (inactive); in the assay on SK-MEL-28, 14.6 µM (inactive); with SW-620, 12.1 µM (inactive); in the assay with NCI-H226, 17 µM (inactive); with CAKI-1, 4.88 µM (inactive); in the assay with SNB-75, 13.3 µM (inactive). Besides, the GI50 in the assay with SF-539 was 19.8 µM (inactive); in the assay with U-251, 20 µM (inactive); with UACC-62, 14.2 µM (inactive); in the assay on HL-60 it was 8.71 µM (inactive); in the assay on Malme-3M, 13.3 µM (inactive); with MDA-MB-435, 15.2 µM (inactive).

For the compound `CCN(CC)CCNC(=O)c1ccccc1NC(=O)C(=O)Nc1ccccc1C(=O)NCCN(CC)CC`, the GI50 in the assay on RPMI-8226 was > 100 µM (inactive); in the assay with A549, > 100 µM (inactive); with SR, 21.8 µM (inactive); in the assay with OVCAR-5 it was 94 µM (inactive); in the assay on SK-OV-3, > 100 µM (inactive); in the assay on UACC-257 it was 18.6 µM (inactive). Also, the GI50 in the assay on OVCAR-3 is 62.7 µM (inactive); in the assay with SK-MEL-28, 45.4 µM (inactive); in the assay on SW-620 it was 18.5 µM (inactive); with NCI-H226 it was > 100 µM (inactive); in the assay with CAKI-1, > 100 µM (inactive); with SNB-75, 47 µM (inactive). Moreover, the GI50 in the assay on SF-539 was 24.1 µM (inactive); in the assay on U-251, 44.6 µM (inactive); in the assay on UACC-62 it was > 100 µM (inactive); with HL-60, 15.2 µM (inactive); in the assay on Malme-3M, 21 µM (inactive).

`O=C(Nc1ccc(C(F)(F)F)cc1[N+](=O)[O-])C(=O)C(C(=O)c1ccc2ccccc2c1)C1OC(=O)c2ccccc21` (stereo not drawn): the GI50 with RPMI-8226 was 4.11 µM (inactive); in the assay on A549, 8.51 µM (inactive); in the assay with SR, 2.81 µM (inactive); with OVCAR-5 it was 13.3 µM (inactive); in the assay on SK-OV-3, 26.5 µM (inactive); in the assay with UACC-257, 10.1 µM (inactive). The GI50 in the assay on OVCAR-3 was 12.8 µM (inactive); in the assay on SK-MEL-28 it was 3.63 µM (inactive); in the assay on SW-620, 4.78 µM (inactive); in the assay on NCI-H226, 0.681 µM (active); in the assay with CAKI-1, 8.26 µM (inactive); in the assay with SNB-75, 6.97 µM (inactive). Also, the GI50 was 1.63 µM (inactive) in the assay with SF-539; 4.41 µM (inactive) with U-251; 5.6 µM (inactive) with UACC-62; 8.28 µM (inactive) with HL-60; 11.6 µM (inactive) in the assay on Malme-3M.

Regarding `FC(F)(F)c1ccc(/C=N/C23CC4CC(CC(C4)C2)C3)cc1`, the GI50 in the assay with RPMI-8226, in the assay on A549, in the assay with SR, with OVCAR-5, in the assay with SK-OV-3 and in the assay with UACC-257 was > 100 µM (inactive) in each case. Also, the GI50 with OVCAR-3, in the assay with SK-MEL-28, in the assay with SW-620, with NCI-H226, in the assay with CAKI-1 and in the assay with SNB-75 was > 100 µM (inactive) throughout. Besides, the GI50 with SF-539, with U-251, in the assay on UACC-62, in the assay with HL-60 and in the assay with Malme-3M was > 100 µM (inactive) throughout.

Turning to `COc1ccc(-n2c(=O)c3nc[nH]c3n(-c3ccc(OC)cc3)c2=S)cc1`, the GI50 in the assay on RPMI-8226, in the assay on PC-3, in the assay on A549, in the assay with SR, in the assay on OVCAR-5 and in the assay with SK-OV-3 was > 100 µM (inactive) each time. Also, the GI50 in the assay with UACC-257, in the assay on OVCAR-3, in the assay with SK-MEL-28, in the assay on SW-620, in the assay on NCI-H226 and in the assay on CAKI-1 was > 100 µM (inactive) each time. The GI50 with SNB-75, in the assay with SF-539, with U-251, with UACC-62, in the assay with HL-60 and with MDA-MB-435 was > 100 µM (inactive) throughout.

In the case of `CCN1N=CSC12C(=O)N(c1ccccc1)C(=O)N2c1ccccc1` (stereo not drawn), the GI50 in the assay on A549, in the assay with SR, with SK-OV-3, in the assay with UACC-257, in the assay with OVCAR-3 and with SK-MEL-28 was > 100 µM (inactive) throughout. Also, the GI50 with SW-620, in the assay with NCI-H226, in the assay with CAKI-1, with SNB-75, in the assay with SF-539 and in the assay with U-251 was > 100 µM (inactive) throughout. The GI50 was > 100 µM (inactive) in the assay on UACC-62, 80.5 µM (inactive) in the assay with HL-60 and > 100 µM (inactive) with Malme-3M.

Turning to `CC(C)(C)C1CCC(=O)C(C(O)CC2CC(=O)N(c3ccccc3)C(=O)C2)C1` (stereo not drawn), the GI50 was 73.1 µM (inactive) with RPMI-8226; > 100 µM (inactive) in the assay on A549; 81.3 µM (inactive) in the assay with SR; > 100 µM (inactive) in the assay with OVCAR-5; > 100 µM (inactive) with SK-OV-3; > 100 µM (inactive) in the assay on UACC-257. Besides, the GI50 with OVCAR-3, in the assay with SK-MEL-28, with SW-620, in the assay with NCI-H226, in the assay on CAKI-1 and with SNB-75 was > 100 µM (inactive) throughout. The GI50 in the assay on SF-539 is > 100 µM (inactive); with U-251, 80.2 µM (inactive); with UACC-62, > 100 µM (inactive); in the assay on HL-60, > 100 µM (inactive); in the assay on Malme-3M, > 100 µM (inactive).
